Results on three compounds are retold here after the NIST ThermoML archive (doi:10.1016/j.tca.2016.09.014).

Numbers after ± are expanded uncertainties.

Series [1] is described as follows: Molar enthalpy of transition or fusion. Particulars: Crystal; DSC.
The conditions of series [2]: Crystal; DTA.

In the case of `O=C(O)c1cc(-c2ccc(F)cc2F)ccc1O` [2',4'-difluoro-4-hydroxy-1,1'-biphenyl-3-carboxylic acid], in series [1], the “Molar enthalpy of transition or fusion” value came out at 9.22 ± 0.263 kcal/mol. Also, the Normal melting temperature in series [2] amounted to 211.78 ± 5 °C.

With `CCCCCCCCCCCCCCCCOC(=O)CCCCCCCCCCCCCCC` [cetyl palmitate], in series [1], the “Molar enthalpy of transition or fusion” value is 15.8 ± 0.43 kcal/mol. Also, the Normal melting temperature in series [2] worked out at 41.27 ± 5 °C.

Turning to `CCCCCCCCCCCCCCCCCC(=O)O` [octadecanoic acid], the “Molar enthalpy of transition or fusion” value in series [1] was 12.1 ± 0.335 kcal/mol.
